Values of other authors in patent US20130164233A1, “SKIN-WHITENING ESSENCE COMPOSITION CONTAINING TYROSINASE INHIBITOR” (priority 2011, published 2013).

System: skin
Conditions: conventionally

NC[C@H]1CC[C@H](C(=O)O)CC1 [tranexamic acid]
Concentration needed to give whitening effect: higher than 3%
